Test results as given in article PMC2096555 (Purinergic Signalling, 2005).
Values joined by “and” are separate entries in the source; they are usually repeats but may differ in a detail not shown here. Identical values can stand only once.

Columns and labels:
mouse NTPDase1 = details: read-out: Reported Km mouse NTPDase1; ATP; cited from earlier work
rat NTPDase1 [1] = molecular target: T1, rat NTPDase1 (Rattus norvegicus, UniProt P97687); format: biochemical
T1 sequence (P97687 1-511): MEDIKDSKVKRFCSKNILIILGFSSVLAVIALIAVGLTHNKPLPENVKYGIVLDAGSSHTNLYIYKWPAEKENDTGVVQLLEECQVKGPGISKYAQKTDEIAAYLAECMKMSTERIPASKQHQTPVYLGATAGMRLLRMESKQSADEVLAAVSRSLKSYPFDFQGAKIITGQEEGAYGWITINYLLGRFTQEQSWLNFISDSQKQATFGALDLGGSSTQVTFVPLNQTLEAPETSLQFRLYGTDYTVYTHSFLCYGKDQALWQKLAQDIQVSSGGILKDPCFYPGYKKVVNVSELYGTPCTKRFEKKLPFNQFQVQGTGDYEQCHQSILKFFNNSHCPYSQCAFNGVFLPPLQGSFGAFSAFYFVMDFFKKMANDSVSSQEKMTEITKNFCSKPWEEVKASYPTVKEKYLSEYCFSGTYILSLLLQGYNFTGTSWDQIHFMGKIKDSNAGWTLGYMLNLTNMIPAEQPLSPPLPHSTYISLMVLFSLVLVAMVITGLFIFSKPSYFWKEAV

mouse NTPDase3 = details: read-out: Reported Km mouse NTPDase3; ATP; cited from earlier work
recombinant rat NTPDase1 = details: read-out: Reported Km recombinant rat NTPDase1; ATP; cited from earlier work
human NTPDase1 = details: read-out: Reported Km human NTPDase1; ATP; cited from earlier work
human NTPDase3 = details: read-out: Reported Km human NTPDase3; ATP; respectively ref 32, 40; cited from earlier work
mouse NTPDase2 = details: read-out: Reported Km mouse NTPDase2; ATP; no reference given; cited from earlier work
rat NTPDase2 [2] = molecular target: T2, rat NTPDase2 (Rattus norvegicus, UniProt O35795); format: biochemical
T2 sequence (O35795 1-495): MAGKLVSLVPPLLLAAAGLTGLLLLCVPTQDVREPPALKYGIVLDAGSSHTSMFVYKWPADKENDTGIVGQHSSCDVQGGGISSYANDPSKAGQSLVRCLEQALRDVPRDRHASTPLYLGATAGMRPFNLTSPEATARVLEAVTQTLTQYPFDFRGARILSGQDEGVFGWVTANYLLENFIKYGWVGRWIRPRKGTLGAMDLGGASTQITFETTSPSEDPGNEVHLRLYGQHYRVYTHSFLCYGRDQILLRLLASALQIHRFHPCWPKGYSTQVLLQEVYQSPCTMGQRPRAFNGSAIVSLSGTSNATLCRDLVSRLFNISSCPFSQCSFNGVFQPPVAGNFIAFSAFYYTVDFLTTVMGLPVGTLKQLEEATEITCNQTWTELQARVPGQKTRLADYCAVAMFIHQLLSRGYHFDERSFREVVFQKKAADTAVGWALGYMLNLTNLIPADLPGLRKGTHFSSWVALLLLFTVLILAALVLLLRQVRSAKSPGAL

rat NTPDase3 [3] = molecular target: T3, rat NTPDase3 (Rattus norvegicus, UniProt A6I415); format: biochemical
T3 sequence (A6I415 1-529): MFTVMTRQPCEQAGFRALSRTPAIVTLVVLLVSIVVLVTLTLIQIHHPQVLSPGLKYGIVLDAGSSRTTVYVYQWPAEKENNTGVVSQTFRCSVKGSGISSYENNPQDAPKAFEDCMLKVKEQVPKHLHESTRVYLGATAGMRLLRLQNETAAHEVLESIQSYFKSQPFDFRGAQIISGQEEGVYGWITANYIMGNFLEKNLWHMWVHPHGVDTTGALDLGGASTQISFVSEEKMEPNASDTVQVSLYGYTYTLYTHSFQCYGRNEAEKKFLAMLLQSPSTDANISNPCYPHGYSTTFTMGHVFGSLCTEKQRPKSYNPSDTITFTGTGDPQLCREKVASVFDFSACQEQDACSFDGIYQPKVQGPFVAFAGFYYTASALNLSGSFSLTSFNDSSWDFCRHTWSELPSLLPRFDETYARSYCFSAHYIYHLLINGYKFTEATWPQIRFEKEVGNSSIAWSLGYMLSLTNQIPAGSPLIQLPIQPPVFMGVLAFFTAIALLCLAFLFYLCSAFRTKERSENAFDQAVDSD

rat NTPDase2 [4] = molecular target: T2, rat NTPDase2; format: biochemical; remark: listed apart in the source
[5] = tested on: rat superior cervical ganglionic cells; details: at 10 µM concentration; cited from earlier work
rat NTPDase1 [6] = molecular target: T1, rat NTPDase1; format: biochemical; remark: listed apart in the source
rat NTPDase3 [7] = molecular target: T3, rat NTPDase3; format: biochemical; remark: listed apart in the source
[8] = substrate ATP, membrane preparation

Nc1ncnc2c1ncn2[C@@H]1O[C@H](COP(=O)(O)OP(=O)(O)OP(=O)(O)O)[C@@H](O)[C@H]1O [ATP]
Km (mouse NTPDase1): 12 µM | Km (rat NTPDase1 [1]; read-out: Km ± SEM NTPDase1, substrate ATP 10-1000 µM, product AMP): 76 ± 12 µM | Vmax ± SEM NTPDase1 (rat NTPDase1 [1]; [8]): 0.023 ± 0.002 μmol/min/mg protein | Km (mouse NTPDase3): 11 µM | Km (recombinant rat NTPDase1): 75 µM | Km (human NTPDase1): 17 µM | Km (human NTPDase3): 75 µM and 128 µM | Km (mouse NTPDase2): 37 µM | Km (rat NTPDase2 [2]; read-out: Km ± SEM NTPDase2, substrate ATP 25-1000 µM, product ADP): 203 ± 8 µM | Vmax ± SEM NTPDase2 (rat NTPDase2 [2]; [8]): 0.021 ± 0.002 μmol/min/mg protein | Km (rat NTPDase3 [3]; read-out: Km ± SEM NTPDase3, substrate ATP 25-1000 µM, product ADP): 311 ± 4 µM | Vmax ± SEM NTPDase3 (rat NTPDase3 [3]; [8]): 0.010 ± 0.001 μmol/min/mg protein

OCCN(CCO)c1nc(N2CCCCC2)c2nc(N(CCO)CCO)nc(N3CCCCC3)c2n1 [Dipyridamole, dipyridamole]
Ki (rat NTPDase2 [4]): > 1 mM | inhibition of ATP hydrolysis [5]: effective inhibitor | Ki (rat NTPDase1 [6]): > 1 mM | Ki (rat NTPDase3 [7]): > 1 mM

Cc1ccc(C(=O)Nc2ccc(S(=O)(=O)O)c3cc(S(=O)(=O)O)cc(S(=O)(=O)O)c23)cc1NC(=O)c1cccc(NC(=O)Nc2cccc(C(=O)Nc3cc(C(=O)Nc4ccc(S(=O)(=O)O)c5cc(S(=O)(=O)O)cc(S(=O)(=O)O)c45)ccc3C)c2)c1 [Suramin, suramin]
Ki for NTPDase1 relative to NTPDase2 (rat NTPDase1 [6]; ratio of Ki values): five fold higher
